Experimental data from patent publication US20240158393A1, “PYRIDONE COMPOUNDS AND METHODS OF USE” (Exelixis, Inc., priority 2021, published 2024).

Experiments:
Human Mer = target: T1, Human Mer (Homo sapiens, UniProt Q12866); experiment: Human Mer kinase assay (33P radiometric / HTRF KinEase); type: biochemical; details: protocols of Examples C-1 and/or C-2
T1 construct: Human Mer (residues R557-E882 with H628Q and R794A, 0.7 nM); purchased Eurofins Pharma Discovery Services UK Limited (KinaseProfiler service)
T1 sequence (Q12866 557-882 limits assumed): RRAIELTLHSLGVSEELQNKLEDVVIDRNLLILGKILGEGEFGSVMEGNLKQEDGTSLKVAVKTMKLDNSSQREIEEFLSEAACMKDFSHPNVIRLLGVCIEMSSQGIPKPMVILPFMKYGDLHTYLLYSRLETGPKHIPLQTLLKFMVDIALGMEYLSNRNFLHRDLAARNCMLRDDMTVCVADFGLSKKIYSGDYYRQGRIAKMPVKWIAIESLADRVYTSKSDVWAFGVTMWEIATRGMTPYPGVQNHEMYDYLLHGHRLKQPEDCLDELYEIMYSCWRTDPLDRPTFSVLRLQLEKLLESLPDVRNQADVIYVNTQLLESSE
In short: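 Two formats yield IC50 values. HTRF KinEase used MER residues 528-999 with ATP at Km (40 μM), 1 μM biotin-peptide, 60 min RT, […], 10 concentrations. 33P filter assay used 0.7 nM Mer R557-E882 (H628Q/R794A), 10 μM ATP, 250 μM peptide, 40 min RT, top 1 μM.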

Human Met = target: T2, Human Met (Homo sapiens, UniProt P08581); experiment: Human Met kinase assay (33P radiometric / HTRF KinEase); type: biochemical; details: protocols of Examples D-1 and/or D-2; read-out: c-Met IC50
T2 construct: Human MET (residues 956-1390)
In short: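 Two formats gave IC50s by curve fitting. HTRF KinEase used MET residues 956-1390 with 1 μM biotin-peptide and 3.0 μM ATP (Km) for 40 min at room temperature, ten doses in 3% DMSO, 665/620 nm read. The 33P transfer assay used mutant Met R974-S1390 A1209G/V1290L (3.4 nM), 10 μM ATP, 250 μM peptide, pH 7.0, 40 min, nine doses from 1 μM.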

T2 sequence (P08581 974-1390 limits assumed): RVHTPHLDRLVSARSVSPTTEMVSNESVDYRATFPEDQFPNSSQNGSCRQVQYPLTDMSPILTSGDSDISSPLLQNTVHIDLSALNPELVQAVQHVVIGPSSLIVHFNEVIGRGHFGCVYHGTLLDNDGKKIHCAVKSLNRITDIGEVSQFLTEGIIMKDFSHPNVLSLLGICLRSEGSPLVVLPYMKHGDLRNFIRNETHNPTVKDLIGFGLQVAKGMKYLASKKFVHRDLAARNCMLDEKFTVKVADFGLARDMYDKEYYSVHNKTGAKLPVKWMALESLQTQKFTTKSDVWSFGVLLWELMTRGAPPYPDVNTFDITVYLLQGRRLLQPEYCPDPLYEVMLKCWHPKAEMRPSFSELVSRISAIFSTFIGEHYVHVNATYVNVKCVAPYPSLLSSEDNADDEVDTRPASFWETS

Structure (SMILES)	IC50 (Human Mer) [nM]	IC50 (Human Met) [nM]
COc1cc2nccc(Oc3ccc(NC(=O)c4c(C)cc(C)n(C5CCCC5)c4=O)cc3F)c2nc1OC [Compound 15, 1-Cyclopentyl-N-[4-[(6,7-dimethoxy-1,5-naphthyridin-4-yl)oxy]-3-fluorophenyl]-4,6-dimethyl-2-oxopyridine-3-carboxamide]	≤ 100	≤ 100
COc1cc2nccc(Oc3ccc(NC(=O)c4cnc(C)c(C5=CCCC5)c4O)cc3)c2cc1OC [Compound 16, 5-(Cyclopenten-1-yl)-N-[4-(6,7-dimethoxyquinolin-4-yl)oxyphenyl]-4-hydroxy-6-methylpyridine-3-carboxamide]	≤ 100	≤ 100
COc1cc2nccc(Oc3ccc(NC(=O)c4cnc(C)c(C5=CCOCC5)c4O)cc3)c2cc1OC [Compound 17, 5-(3,6-Dihydro-2H-pyran-4-yl)-N-[4-(6,7-dimethoxyquinolin-4-yl)oxyphenyl]-4-hydroxy-6-methylpyridine-3-carboxamide]	≤ 100	≤ 100
COc1cc2nccc(Oc3ccc(NC(=O)c4cnc(C)c(C5=CCCC5)c4O)cc3F)c2cc1OC [Compound 18, 5-(Cyclopenten-1-yl)-N-[4-(6,7-dimethoxyquinolin-4-yl)oxy-3-fluorophenyl]-4-hydroxy-6-methylpyridine-3-carboxamide]	≤ 100	≤ 100
COc1cc2nccc(Oc3ccc(NC(=O)c4cnc(C)c(C5=CCOCC5)c4O)cc3F)c2cc1OC [Compound 19, 5-(3,6-Dihydro-2H-pyran-4-yl)-N-[4-(6,7-dimethoxyquinolin-4-yl)oxy-3-fluorophenyl]-4-hydroxy-6-methylpyridine-3-carboxamide]	≤ 100	≤ 100
C=C(C)n1c(C)cc(C)c(C(=O)Nc2ccc(Oc3ccnc4cc(OC)c(OC)nc34)c(F)c2)c1=O [Compound 20, N-[4-[(6,7-Dimethoxy-1,5-naphthyridin-4-yl)oxy]-3-fluorophenyl]-4,6-dimethyl-2-oxo-1-prop-1-en-2-ylpyridine-3-carboxamide]	≤ 100	≤ 100
C=C(C)n1c(C)cc(C)c(C(=O)Nc2ccc(Oc3ccnc4cc(OC)cnc34)c(F)c2)c1=O [Compound 21, N-[3-Fluoro-4-[(7-methoxy-1,5-naphthyridin-4-yl)oxy]phenyl]-4,6-dimethyl-2-oxo-1-prop-1-en-2-ylpyridine-3-carboxamide]	≤ 100	≤ 100
COc1cc2nccc(Oc3ccc(NC(=O)c4c(C)c(Br)c(C)n(C5CCCC5)c4=O)cc3F)c2nc1OC [Compound 22, 5-Bromo-1-cyclopentyl-N-[4-[(6,7-dimethoxy-1,5-naphthyridin-4-yl)oxy]-3-fluorophenyl]-4,6-dimethyl-2-oxopyridine-3-carboxamide]	≤ 100	≤ 100
COc1cc2nccc(Oc3ccc(NC(=O)c4cnc(C)c(C5=CCCCC5)c4O)cc3F)c2cc1OC [Compound 23, 5-(Cyclohexen-1-yl)-N-[4-(6,7-dimethoxyquinolin-4-yl)oxy-3-fluorophenyl]-4-hydroxy-6-methylpyridine-3-carboxamide]	≤ 100	≤ 100
COc1cc2nccc(Oc3ccc(NC(=O)c4cnc(C)c(C5=CCCCC5)c4O)cc3)c2cc1OC [Compound 24, 5-(Cyclohexen-1-yl)-N-[4-(6,7-dimethoxyquinolin-4-yl)oxyphenyl]-4-hydroxy-6-methylpyridine-3-carboxamide]	≤ 100	≤ 100
COc1cc2nccc(Oc3ccc(NC(=O)c4cnc(C)c(/C=C/C5CCCC5)c4O)cc3F)c2nc1OC [Compound 25, 5-[(E)-2-Cyclopentylethenyl]-N-[4-[(6,7-dimethoxy-1,5-naphthyridin-4-yl)oxy]-3-fluorophenyl]-4-hydroxy-6-methylpyridine-3-carboxamide]	≤ 100	> 300
COc1cc2nccc(Oc3ccc(NC(=O)c4cnc(C)c(/C=C/C5CC5)c4O)cc3F)c2nc1OC [Compound 26, 5-[(E)-2-Cyclopropylethenyl]-N-[4-[(6,7-dimethoxy-1,5-naphthyridin-4-yl)oxy]-3-fluorophenyl]-4-hydroxy-6-methylpyridine-3-carboxamide]	≤ 100	≤ 100
COc1cc2nccc(Oc3ccc(NC(=O)c4cnc(C)c(/C=C/C(C)(C)C)c4O)cc3F)c2nc1OC [Compound 27, N-[4-[(6,7-Dimethoxy-1,5-naphthyridin-4-yl)oxy]-3-fluorophenyl]-5-[(E)-3,3-dimethylbut-1-enyl]-4-hydroxy-6-methylpyridine-3-carboxamide]	≤ 100	≤ 100
COc1cc2nccc(Oc3ccc(NC(=O)c4cnc(C)c(/C=C/CC(C)C)c4O)cc3F)c2nc1OC [Compound 28, N-[4-[(6,7-Dimethoxy-1,5-naphthyridin-4-yl)oxy]-3-fluorophenyl]-4-hydroxy-6-methyl-5-[(E)-4-methylpent-1-enyl]pyridine-3-carboxamide]	≤ 100	> 300
COc1cc2nccc(Oc3ccc(NC(=O)c4cnc(C)c(/C=C/CC(C)C)c4O)cc3F)c2cc1OC [Compound 29, N-[4-(6,7-Dimethoxyquinolin-4-yl)oxy-3-fluorophenyl]-4-hydroxy-6-methyl-5-[(E)-4-methylpent-1-enyl]pyridine-3-carboxamide]	≤ 100	≤ 100
COc1cc2nccc(Oc3ccc(NC(=O)c4cnc(C)c(/C=C/C(C)(C)C)c4O)cc3F)c2cc1OC [Compound 30, N-[4-(6,7-Dimethoxyquinolin-4-yl)oxy-3-fluorophenyl]-5-[(E)-3,3-dimethylbut-1-enyl]-4-hydroxy-6-methylpyridine-3-carboxamide]	≤ 100	≤ 100
COc1cc2nccc(Oc3ccc(NC(=O)c4c(C)nc(C)c(C(C)C)c4O)cc3F)c2nc1OC [Compound 31, N-[4-[(6,7-Dimethoxy-1,5-naphthyridin-4-yl)oxy]-3-fluorophenyl]-4-hydroxy-2,6-dimethyl-5-propan-2-ylpyridine-3-carboxamide]	≤ 100	≤ 100
COc1cnc2c(Oc3ccc(NC(=O)c4c(C)nc(C)c(C(C)C)c4O)cc3F)ccnc2c1 [Compound 32, N-[3-Fluoro-4-[(7-methoxy-1,5-naphthyridin-4-yl)oxy]phenyl]-4-hydroxy-2,6-dimethyl-5-propan-2-ylpyridine-3-carboxamide]	≤ 100	≤ 100
COCCOc1cc2nccc(Oc3ccc(NC(=O)c4cnc(C)c(C5=CCCC5)c4O)cc3F)c2nc1OC [Compound 33, 5-(Cyclopenten-1-yl)-N-[3-fluoro-4-[[6-methoxy-7-(2-methoxyethoxy)-1,5-naphthyridin-4-yl]oxy]phenyl]-4-hydroxy-6-methylpyridine-3-carboxamide]	≤ 100	≤ 100
COCCOc1cc2nccc(Oc3ccc(NC(=O)c4cnc(C)c(C5=CCCCC5)c4O)cc3F)c2nc1OC [Compound 34, 5-(Cyclohexen-1-yl)-N-[3-fluoro-4-[[6-methoxy-7-(2-methoxyethoxy)-1,5-naphthyridin-4-yl]oxy]phenyl]-4-hydroxy-6-methylpyridine-3-carboxamide]	≤ 100	≤ 100
COCCOc1cc2nccc(Oc3ccc(NC(=O)c4cnc(C)c(C5=CCOCC5)c4O)cc3F)c2nc1OC [Compound 35, 5-(3,6-Dihydro-2H-pyran-4-yl)-N-[3-fluoro-4-[[6-methoxy-7-(2-methoxyethoxy)-1,5-naphthyridin-4-yl]oxy]phenyl]-4-hydroxy-6-methylpyridine-3-carboxamide]	≤ 100	≤ 100
COCCOc1cc2nccc(Oc3ccc(NC(=O)c4cnc(C)c(/C=C/C5CCCC5)c4O)cc3F)c2nc1OC [Compound 36, 5-[(E)-2-Cyclopentylethenyl]-N-[3-fluoro-4-[[6-methoxy-7-(2-methoxyethoxy)-1,5-naphthyridin-4-yl]oxy]phenyl]-4-hydroxy-6-methylpyridine-3-carboxamide]	≤ 100	≤ 100
COCCOc1cc2nccc(Oc3ccc(NC(=O)c4cnc(C)c(/C=C/C5CC5)c4O)cc3F)c2nc1OC [Compound 37, 5-[(E)-2-Cyclopropylethenyl]-N-[3-fluoro-4-[[6-methoxy-7-(2-methoxyethoxy)-1,5-naphthyridin-4-yl]oxy]phenyl]-4-hydroxy-6-methylpyridine-3-carboxamide]	≤ 100	≤ 100
COc1cc2nccc(Oc3ccc(NC(=O)c4c(C)ccn(C(C)C)c4=O)cc3F)c2nc1OC [Compound 38, N-[4-[(6,7-Dimethoxy-1,5-naphthyridin-4-yl)oxy]-3-fluorophenyl]-4-methyl-2-oxo-1-propan-2-ylpyridine-3-carboxamide]	≤ 100	> 300
COc1cc2nccc(Oc3ccc(NC(=O)c4c(C)ccn(C(C)C)c4=O)cc3)c2nc1OC [Compound 39, N-[4-[(6,7-Dimethoxy-1,5-naphthyridin-4-yl)oxy]phenyl]-4-methyl-2-oxo-1-propan-2-ylpyridine-3-carboxamide]	≤ 100	> 300
